From article PMC12656546, “Enterohepatic Recirculation-Mediated Reabsorption of Aristolochic Acid I: Revealed by Toxicokinetics and Metabolite Identification in Rats” (Toxics, 2025)

Assay: Qualitative analysis of AAI and metabolites in bile of bile duct-cannulated rats
Type: in vivo, F344 rats
Details: 30 mg/kg AAI oral, bile collected 0–3 h, 3–6 h, 6–9 h, 9–12 h, qualitative UHPLC-Q-Exactive
Description: Ten 6-week-old F344 rats were divided into a control group (n = 2) and a treatment group (n = 8), with equal numbers of males and females in each group. During the experiment, rats were fasted and had access to water ad libitum. Rats in the control group were administered with 0.5% CMC-Na suspension via gastric gavage. For the treatment group, rats were administered with 30 mg/kg of AAI by the same route. Rats underwent bile duct cannulation for bile sample collection. Bile samples were collected at consecutive intervals of 0–3 h, 3–6 h, 6–9 h and 9–12 h after administration.
For each bile sample, a 200 μL aliquot of bile was mixed with an equal volume of a methanol/acetonitrile (1:1, v/v) solution. After vortexing for 2 min, the mixture was centrifuged at 13,200 rpm for 10 min. The precipitate was discarded, and the supernatant was dried under nitrogen gas. The dried residue was reconstituted in 80 μL of methanol, vortexed for 2 min, and centrifuged at 13,200 rpm for 15 min. The resulting supernatant was used for further analysis.
Ultra-high-performance liquid chromatography (UHPLC) coupled with a Q-Exactive orbitrap mass spectrometer (Thermo Fisher Scientific, San Jose, CA, USA) was used to analyzed the metabolites of AAI in rat bile. An ACQUITY UPLC BEH C18 column (2.1 mm × 50 mm, 1.7 μm, Waters, Milford, MA, USA) was employed for chromatographic separation. The mobile phase consisted of water containing 5 mmol/L ammonium formate/0.1% formic acid (A) and acetonitrile (B).
Metabolites in bile samples were analyzed using electrospray ionization (ESI) in both positive and negative ion modes. The spray voltage was set at 3500 V for positive mode and 3000 V for negative mode. The ion transfer tube temperature was maintained at 350 °C with a vaporizer temperature of 300 °C. The sheath gas and auxiliary gas flow rates were 35 Arb and 10 Arb. Full-scan MS data were acquired at a resolution of 35,000 within the mass range of m/z 100–1200. For MS/MS analysis, data-dependent acquisition (DDA) was performed at a resolution of 17,500 using high-energy collision dissociation (HCD). Post-acquisition data was imported into Compound Discoverer 2.1 software to identify AAI metabolites. Blank matrices were processed alongside samples to exclude the background interferences.

| Structure (SMILES) | detection in bile (biliary excretion) |
| --- | --- |
| COc1cccc2c1cc([N+](=O)[O-])c1c(C(=O)OC3OC(C(=O)O)C(O)C(O)C3O)cc3c(c12)OCO3 (stereo not drawn) [AAI-O-glucuronide] | detectable in bile collected during four consecutive periods after oral administration |
| COc1cccc2c1c(O)c1c3c(cc4c(c32)OCO4)C(=O)N1 [ALI-9-OH, 9-hydroxyaristolactam I] | detected in bile samples |
| COc1cccc2c1cc1c3c(cc4c(c32)OCO4)C(=O)N1O [ALI-N-OH, N-hydroxyaristolactam I] | detected in bile samples |
